Data set [1] deals with Cryptococcus neoformans IAM 4514. In words: In vitro antifungal activity, agar dilution method (MIC). In kind it is cell-based. The settings on record: yeast morphology agar + 1/15M phosphate buffer (pH 7.0), 10^6 cells/ml, 28°C, 40 hrs. (In agar dilution the substance is mixed into plates at graded concentrations.)
The test system of data set [2] is Candida albicans A9540. Briefly: In vivo efficacy against systemic infection in mice. To be noted: male ICR mice; C. albicans A9540 systemic infection; single intravenous dose immediately after challenge; survival rate 20 days after infection. On the procedure: (§1) Pradimicins T1 and T2 were evaluated for in vivo efficacy against a Candida albicans A9540 systemic infection in male ICR mice (20-24 g body weight) as described by Oki etal. in water-soluble pradimicin derivatives, synthesis and antifungal evaluation of N,N,-dimethyl pradimicins, J. Antibiotics 43: 1230-1235, 1990. Five mice at each dose level were challenged intravenously with ten times the 50% lethal dose of the pathogen suspended in saline. Antibiotics were intravenously administered once immediately after the fungal challenge. Infection control animals (n=10) died from 7 to 12 days. The 50% protective dose (PD50) was calculated from the survival rate 20 days after the fungal infection. The acute toxicity of pradimicins T1 and T2 was determined in mice after a single intravenous dose.

Data set [3] concerns Candida albicans ATCC 32354 (B311). Briefly: In vitro antifungal activity, agar dilution method (MIC). Format: cell-based. The settings on record: yeast morphology agar + 1/15M phosphate buffer (pH 7.0), 10^6 cells/ml, 28°C, 40 hrs.
The subject of data set [4] is Candida albicans 83-2-14 (Juntendo). The data set is described as above. In kind it is cell-based. To be noted: yeast morphology agar + 1/15M phosphate buffer (pH 7.0), 10^6 cells/ml, 28°C, 40 hrs.
For data set [5], the system named is Trichophyton mentagrophytes 4329. Described as above. Format: cell-based. The settings on record: yeast morphology agar + 1/15M phosphate buffer (pH 7.0), 10^7 cells/ml, 28°C, 60 hrs.
Data set [6] relates to Candida albicans A9540. The data set is described as above. In kind it is cell-based. The settings on record: yeast morphology agar + 1/15M phosphate buffer (pH 7.0), 10^6 cells/ml, 28°C, 40 hrs.
Data set [7] deals with Saccharomyces cerevisiae ATCC 9763. The data set is described as above. In kind it is cell-based. The settings on record: yeast morphology agar + 1/15M phosphate buffer (pH 7.0), 10^6 cells/ml, 28°C, 40 hrs.
For data set [8], the system named is Aspergillus fumigatus IAM 2034. The data set is described as above. To be noted: yeast morphology agar + 1/15M phosphate buffer (pH 7.0), 10^6 cells/ml, 28°C, 40 hrs. In kind it is cell-based.
Data set [9] can be described thus: Acute toxicity in mice after a single intravenous dose. Format: in vivo. On the procedure: as §1
Data set [10] relates to Cryptococcus neoformans D49. In words: In vitro antifungal activity, agar dilution method (MIC). To be noted: yeast morphology agar + 1/15M phosphate buffer (pH 7.0), 10^6 cells/ml, 28°C, 40 hrs. In kind it is cell-based.

In general, LD50 refers to the dose at which mortality reaches 50%. Read a low LD50 as a more toxic substance.

Where only a bound is given, the exact number is not on record here.

On to Amphotericin B, for which the MIC in data set [1] was found to be 0.4 µg/mL; in data set [3], 0.4 µg/mL; in [4] it was 0.4 µg/mL; in [5], 0.8 μ g/ml; in the data set on Candida albicans A9540 [6], 0.4 µg/mL; in [7] it was 0.4 µg/mL. Besides, the MIC in data set [8] is 0.8 μ g/ml; in data set [10] it was 0.4 µg/mL. Besides, the PD50 in the data set with Candida albicans A9540 [2] came to 0.2 mg/kg. This substance also gave an LD50 in [9] of 4.5 mg/kg.
As for Pradimicin T1, the MIC in data set [5] and in [8] was 6.3 μ g/ml each time.
For the substance Pradimicin T2, the MIC is on record as 50 μ g/ml in [5] and >100 μ g/ml in data set [8].
Taken in the same sequence, the figures for “11-O-dexylosylpradimicin T1 [11-O-Dexylosyl-pradimicin T1]” were 12.5 μ g/ml and 25 μ g/ml.

These data come from EP0581652A1, “Pradimicins T1 and T2 and 11-0-dexylosylpradimicin T1, new members of the pradimicin family of antibiotics” (priority 1992, dated 1994).
